Read-outs that look alike come from different tables or passages of the source. Marks after values point to notes of the source that are not given here.
What was measured:
ABCB1 = details: cited from earlier work
ABCG2 = details: cited from earlier work
[1] = Plasma pharmacokinetics of sunitinib and N-desethyl sunitinib; assay type: in vivo, human; details: for half-life: n=1
CYP3A4 = details: cited from earlier work
[2] = phase III trial, 50mg/day, cited from earlier work
[3] = system: solid or hematologic malignancy; assay: Response assessment after every two cycles; assay type: in vivo, human; details: 17 patients evaluable for response
[4] = human, in vivo, 6 weeks (cycle 1)

## CCNCCNC(=O)c1c(C)[nH]c(/C=C2\C(=O)Nc3ccc(F)cc32)c1C [N-desethyl sunitinib]
ABCB1
  substrate for ABCB1 drug transporter: substrates
ABCG2
  substrate for ABCG2 drug transporter: substrates
[1]; human, in vivo
  decrease in AUC0–24h compared to NNRTI: 40%
  decrease in Cmax compared to NNRTI: 48%
  increase in AUC0–24h compared to NNRTI: 390%
  increase in Cmax compared to NNRTI: 410%

## O=C1Nc2ccc(Cl)cc2[C@@](C#CC2CC2)(C(F)(F)F)O1 [efavirenz]
CYP3A4
  induction of CYP3A4: known inducer

## CCN(CC)CCNC(=O)c1c(C)[nH]c(/C=C2\C(=O)Nc3ccc(F)cc32)c1C [sunitinib, Sunitinib malate]
ABCB1
  substrate for ABCB1 drug transporter: substrates
[2]; gastrointestinal stromal tumors
  rate of grade 3 or 4 neutropenia: 10%
[2]; primitive neuroectodermal tumors
  rate of grade 3 or 4 neutropenia: 16%
[2]; renal cell carcinoma
  rate of grade 3 or 4 neutropenia: 17%
[3]
  objective response to therapy: No patient experienced an objective response
ABCG2
  substrate for ABCG2 drug transporter: substrates
human, in vivo
  ALT/AST Elevation All Grade (%): 2 (11)
  ALT/AST Elevation ≥G3 (%): 0 (0)
  Abdominal Pain All Grade (%): 2 (11)
  Abdominal Pain ≥G3 (%): 0 (0)
  Anemia All Grade (%): 3 (16)
  Anemia ≥G3 (%): 1 (5)
  Anorexia ≥G3 (%): 0 (0)
  Constipation All Grade (%): 2 (11)
  Constipation ≥G3 (%): 0 (0)
  Cough ≥G3 (%): 0 (0)
  Diarrhea All Grade (%): 9 (47)
  Diarrhea ≥G3 (%): 1 (5)
  Epistaxis ≥G3 (%): 0 (0)
  Fatigue All Grade (%): 8 (42)
  Fatigue ≥G3 (%): 0 (0)
  Headache All Grade (%): 2 (11)
  Headache ≥G3 (%): 0 (0)
  Hypertension All Grade (%): 4 (21)
  Hypertension ≥G3 (%): 0 (0)
  Hypopigmentation All Grade (%): 2 (11)
  Hypopigmentation ≥G3 (%): 0 (0)
  Mucositis All Grade (%): 3 (16)
  Mucositis ≥G3 (%): 0 (0)
  Myalgia/Limb Pain All Grade (%): 2 (11)
  Myalgia/Limb Pain ≥G3 (%): 0 (0)
  Nausea/Vomiting All Grade (%): 6 (32)
  Nausea/Vomiting ≥G3 (%): 0 (0)
  Neutropenia All Grade (%): 10 (53)
  Neutropenia ≥G3 (%): 6 (32)
  Rash ≥G3 (%): 0 (0)
  Thrombocytopenia All Grade (%): 3 (16)
  Thrombocytopenia ≥G3 (%): 0 (0)
  Wound Dehiscence All Grade (%): 2 (11)
  Wound Dehiscence ≥G3 (%): 1 (5)
human, in vivo, 6 weeks
  ALT/AST Elevation All Grade (%): 2 (11)
  ALT/AST Elevation ≥G3 (%): 0 (0)
  Constipation All Grade (%): 1 (5)
  Constipation ≥G3 (%): 0 (0)
  Diarrhea All Grade (%): 8 (42)
  Diarrhea ≥G3 (%): 0 (0)
  Fatigue All Grade (%): 7 (37)
  Fatigue ≥G3 (%): 0 (0)
  Hypertension All Grade (%): 3 (16)
  Hypertension ≥G3 (%): 0 (0)
  Mucositis All Grade (%): 2 (11)
  Mucositis ≥G3 (%): 0 (0)
  Nausea/Vomiting All Grade (%): 3 (16)
  Nausea/Vomiting ≥G3 (%): 0 (0)
[4]
  Anemia All Grade (%): 2 (11)
  Anemia ≥G3 (%): 1 (5)
  Neutropenia All Grade (%): 10 (53)
  Neutropenia ≥G3 (%): 5 (26)
  Thrombocytopenia All Grade (%): 2 (11)
  Thrombocytopenia ≥G3 (%): 0 (0)
  Wound Dehiscence All Grade (%): 2 (11)
  Wound Dehiscence ≥G3 (%): 1 (5) ^#
Patients on ritonavir, 4 week on/2 week off schedule
  recommended dose: 37.5 mg/day
Patients on ritonavir, daily, 4 weeks on/2 weeks off
  MTD: 37.5 mg
[1]; Mann–Whitney U-test, p=0.013
  correlation between hand-foot syndrome and elevated Cmin,ss: There was a correlation
[1]; Ritonavir group, sunitinib 37.5 mg/day, Cycle 1 Day 1, mean±SD
  Cmax: 19.9±5.9 (6) ng/mL
[1]; Ritonavir group, sunitinib 37.5 mg/day, actual values (n=2)
  T1/2: 86.8 h
[1]; human, in vivo, 37.5 mg/day
  AUC(0-t): 338 ± 99 ng·h/mL
  fraction unbound: 0.067 ± 0.021
[1]; human, plasma, oral, 25 mg/day, T1/2, Ritonavir group, sunitinib 25 mg/day
  half-life: 66 h
[1]; human, plasma, oral, 50 mg/day
  Tmax: 7.5 h
[1]; human, plasma, oral, 50 mg/day, T1/2, NNRTI group, sunitinib 50 mg/day
  half-life: 63.6 h

Source: paper PMC4038645 (Cancer, 2014)
